# Test results published in patent US20250296959A1, “B7-H3 TARGETING PEPTIDES AND CONSTRUCTS THEREOF” (Mariana Oncology Inc., priority 2024, published 2025).
# Starred links: 1 amine or outer side, 2 acyl side, 3 side chain; linkers in the order of their positions; H or OH if unused. Positions of bridges follow the written chain, without caps; N, C: chain ends. Non-standard residues stand in square brackets, D forms with d. Residues, ends and D or L forms follow the SMILES beside them. Groups on a side chain read outwards from the residue. *: point of attachment. Phe(3-CH2NH2) = O=C([C@H](Cc1cccc(CN[*:3])c1)N[*:1])[*:2]; DOTA = O=C(O)CN1CCN(CC(=O)O)CCN(CC(=O)*)CCN(CC(=O)O)CC1; Trp(5-F) = N[C@@H](Cc1c[nH]c2ccc(F)cc12)C(=O)O; γGlu = O=C(O)[C@H](CCC(=O)[*:2])N[*:1]; 1Nal = N[C@@H](Cc1cccc2ccccc12)C(=O)O; cisHyp = O=C(O)[C@@H]1C[C@H](O)CN1; 4Pal = N[C@@H](Cc1ccncc1)C(=O)O; Tle = CC(C)(C)[C@H](N)C(=O)O; hLeu = CC(C)CC[C@H](N)C(=O)O; αMeP = C[C@@]1(C(=O)O)CCCN1
# Biological target: T1, human 4lg B7-H3 (Homo sapiens, UniProt Q5ZPR3)
# T1 sequence (Q5ZPR3 29-534): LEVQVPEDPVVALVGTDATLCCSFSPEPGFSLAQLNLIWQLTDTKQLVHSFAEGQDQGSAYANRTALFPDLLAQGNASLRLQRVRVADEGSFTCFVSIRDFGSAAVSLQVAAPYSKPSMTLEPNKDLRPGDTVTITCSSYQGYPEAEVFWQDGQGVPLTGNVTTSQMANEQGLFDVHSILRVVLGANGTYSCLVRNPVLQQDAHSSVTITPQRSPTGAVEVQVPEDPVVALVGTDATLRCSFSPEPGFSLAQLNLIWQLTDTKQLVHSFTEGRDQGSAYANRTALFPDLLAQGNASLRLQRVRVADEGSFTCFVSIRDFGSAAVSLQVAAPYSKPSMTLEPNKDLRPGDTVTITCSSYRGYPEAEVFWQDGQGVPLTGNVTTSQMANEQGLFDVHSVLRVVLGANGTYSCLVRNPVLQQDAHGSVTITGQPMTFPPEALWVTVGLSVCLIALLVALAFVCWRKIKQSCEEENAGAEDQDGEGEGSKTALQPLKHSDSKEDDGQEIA
# Test: Affinity determination by surface plasmon resonance (SPR) to 4Ig B7-H3
# Conditions: SPR KD—25° C., 4Ig B7-H3; 25° C. flow cell temperature
row,Compound,Kd [nM]
1,"CC(=O)N[C@@H](CCC(C)C)C(=O)N[C@@H](Cc1ccc(O)cc1)C(=O)N[C@H]1CSSC[C@@H](C(=O)N[C@@H](Cc2cccc3ccccc23)C(=O)N[C@@H](Cc2ccccc2)C(=O)N2CCC[C@H]2C(=O)N[C@H](CCCCNC(=O)CN2CCN(CC(=O)O)CCN(CC(=O)O)CCN(CC(=O)O)CC2)C(N)=O)NC(=O)[C@H](Cc2ccc(O)cc2)NC(=O)[C@H](C(C)C)NC(=O)[C@H](CC(=O)O)NC(=O)[C@H](Cc2ccc(O)cc2)NC(=O)[C@H](CCCCN)NC(=O)CNC(=O)[C@H](C(C)(C)C)NC1=O [compound 244, Ac-hLeu-Y-C-Tbg-G-K-Y-D-V-Y-C-1Nal-F-Pro-dLys(DOTA)-CONH2] (Ac-[hLeu]YC[Tle]GKYDVYC[1Nal]FP[dK](DOTA)-NH2; disulfide 3-11)",< 1
2,"CC(=O)N[C@@H](CCC(C)C)C(=O)N[C@@H](Cc1ccc(O)cc1)C(=O)N[C@H]1CSSC[C@@H](C(=O)N[C@@H](Cc2cccc3ccccc23)C(=O)N[C@@H](Cc2ccccc2)C(=O)N2CCC[C@H]2C(=O)N[C@H](CCCCNC(=O)CN2CCN(CC(=O)O)CCN(CC(=O)O)CCN(CC(=O)O)CC2)C(N)=O)NC(=O)[C@H](Cc2ccc(O)cc2)NC(=O)[C@H](C(C)C)NC(=O)[C@H](CC(=O)O)NC(=O)[C@H](Cc2ccc(O)cc2)NC(=O)[C@H](CCCCN)NC(=O)CNC(=O)[C@H](C(C)C)NC1=O [compound 245, Ac-hLeu-Y-C-V-G-K-Y-D-V-Y-C-1Nal-F-Pro-dLys(DOTA)-CONH2] (Ac-[hLeu]YCVGKYDVYC[1Nal]FP[dK](DOTA)-NH2; disulfide 3-11)",1 to 10
3,"CC(=O)N[C@@H](CCC(C)C)C(=O)N[C@@H](Cc1ccc(O)cc1)C(=O)N[C@H]1CSSC[C@@H](C(=O)N[C@@H](Cc2cccc3ccccc23)C(=O)N[C@@H](Cc2ccccc2)C(=O)N2CCC[C@@]2(C)C(=O)N[C@H](CCCCNC(=O)CN2CCN(CC(=O)O)CCN(CC(=O)O)CCN(CC(=O)O)CC2)C(N)=O)NC(=O)[C@H](Cc2ccc(O)cc2)NC(=O)[C@H](C(C)C)NC(=O)[C@H](CC(=O)O)NC(=O)[C@H](Cc2ccc(O)cc2)NC(=O)[C@H](CCCCN)NC(=O)CNC(=O)[C@H](C(C)(C)C)NC1=O [compound 246, Ac-hLeu-Y-C-Tbg-G-K-Y-D-V-Y-C-1Nal-F-aMePro-dLys(DOTA)-CONH2] (Ac-[hLeu]YC[Tle]GKYDVYC[1Nal]F[αMeP][dK](DOTA)-NH2; disulfide 3-11)",1 to 10
4,"CC(=O)N[C@@H](CCC(C)C)C(=O)N[C@@H](Cc1ccc(O)cc1)C(=O)N[C@H]1CSSC[C@@H](C(=O)N[C@@H](Cc2cccc3ccccc23)C(=O)N[C@@H](Cc2ccccc2)C(=O)N2CCC[C@@]2(C)C(=O)N[C@H](CCCCNC(=O)CN2CCN(CC(=O)O)CCN(CC(=O)O)CCN(CC(=O)O)CC2)C(N)=O)NC(=O)[C@H](Cc2ccc(O)cc2)NC(=O)[C@H](C(C)C)NC(=O)[C@H](CC(=O)O)NC(=O)[C@H](Cc2ccc(O)cc2)NC(=O)[C@H](CCCCN)NC(=O)CNC(=O)[C@H](C(C)C)NC1=O [compound 247, Ac-hLeu-Y-C-V-G-K-Y-D-V-Y-C-1Nal-F-aMePro-dLys(DOTA)-CONH2] (Ac-[hLeu]YCVGKYDVYC[1Nal]F[αMeP][dK](DOTA)-NH2; disulfide 3-11)",1 to 10
5,"CC(=O)N[C@@H](CCC(C)C)C(=O)N[C@@H](Cc1ccc(O)cc1)C(=O)N[C@H]1CSSC[C@@H](C(=O)N[C@@H](Cc2c[nH]c3ccc(F)cc23)C(=O)N[C@@H](Cc2ccccc2)C(=O)N2CCC[C@H]2C(=O)N[C@H](CCCCNC(=O)CN2CCN(CC(=O)O)CCN(CC(=O)O)CCN(CC(=O)O)CC2)C(N)=O)NC(=O)[C@H](Cc2ccc(O)cc2)NC(=O)[C@H](C(C)C)NC(=O)[C@H](CC(=O)O)NC(=O)[C@H](Cc2ccc(O)cc2)NC(=O)[C@H](CCCCN)NC(=O)CNC(=O)[C@H](C(C)(C)C)NC1=O [compound 248, Ac-hLeu-Y-C-Tbg-G-K-Y-D-V-Y-C-5FW-F-Pro-dLys(DOTA)-CONH2] (Ac-[hLeu]YC[Tle]GKYDVYC[Trp(5-F)]FP[dK](DOTA)-NH2; disulfide 3-11)",1 to 10
6,"COc1ccc(C[C@@H]2NC(=O)[C@H](C(C)C)NC(=O)[C@H](CC(=O)O)NC(=O)[C@H](Cc3ccncc3)NC(=O)[C@H](CCCCNC(=O)CN3CCN(CC(=O)O)CCN(CC(=O)O)CCN(CC(=O)O)CC3)NC(=O)CNC(=O)[C@H](C(C)C)NC(=O)[C@@H](NC(=O)[C@H](Cc3ccc(O)cc3)NC(=O)[C@H](CCC(C)C)NC(C)=O)CSSC[C@@H](C(=O)N[C@@H](Cc3c[nH]c4ccc(F)cc34)C(=O)N[C@@H](Cc3ccccc3)C(=O)N3CCC[C@H]3C(N)=O)NC2=O)cc1 [compound 249, Ac-hLeu-Y-C-V-G-Lys(DOTA)-4PyA-D-V-OMeTyr-C-5FW-F-Pro-CONH2] (Ac-[hLeu]YCVGK(DOTA)[4Pal]DVY(Me)C[Trp(5-F)]FP-NH2; disulfide 3-11)",1 to 10
7,"CC(=O)N[C@@H](CCC(C)C)C(=O)N[C@@H](Cc1ccc(O)cc1)C(=O)N[C@H]1CSSC[C@@H](C(=O)N[C@@H](Cc2cccc3ccccc23)C(=O)N[C@@H](Cc2ccccc2)C(=O)N2C[C@@H](O)C[C@H]2C(N)=O)NC(=O)[C@H](Cc2ccc(O)cc2)NC(=O)[C@H](C(C)C)NC(=O)[C@H](CC(=O)O)NC(=O)[C@H](Cc2ccncc2)NC(=O)[C@H](CCCCNC(=O)CN2CCN(CC(=O)O)CCN(CC(=O)O)CCN(CC(=O)O)CC2)NC(=O)CNC(=O)[C@H](C(C)(C)C)NC1=O [compound 250, Ac-hLeu-Y-C-Tbg-G-Lys(DOTA)-4PyA-D-V-Y-C-1Nal-F-(cisHyp)-CONH2] (Ac-[hLeu]YC[Tle]GK(DOTA)[4Pal]DVYC[1Nal]F[cisHyp]-NH2; disulfide 3-11)",10 to 100
8,"CC[C@H](C)[C@@H]1NC(=O)[C@@H](NC(=O)[C@H](Cc2ccc(O)cc2)NC(=O)[C@H](CCC(C)C)NC(C)=O)CSSC[C@@H](C(=O)N[C@@H](Cc2c[nH]c3ccc(F)cc23)C(=O)N[C@@H](Cc2ccccc2)C(=O)N2C[C@@H](O)C[C@H]2C(N)=O)NC(=O)[C@H](Cc2ccc(O)cc2)NC(=O)[C@H](C(C)C)NC(=O)[C@H](CC(=O)O)NC(=O)[C@H](Cc2ccncc2)NC(=O)[C@H](CCCCNC(=O)CN2CCN(CC(=O)O)CCN(CC(=O)O)CCN(CC(=O)O)CC2)NC(=O)CNC1=O [compound 251, Ac-hLeu-Y-C-Ile-G-Lys(DOTA)-4PyA-D-V-Y-C-5FW-F-(cisHyp)-CONH2] (Ac-[hLeu]YCIGK(DOTA)[4Pal]DVYC[Trp(5-F)]F[cisHyp]-NH2; disulfide 3-11)",1 to 10
9,"CC(=O)N[C@@H](CCC(C)C)C(=O)N[C@@H](Cc1ccc(O)cc1)C(=O)N[C@H]1CSSC[C@@H](C(=O)N[C@@H](Cc2cccc3ccccc23)C(=O)N[C@@H](Cc2ccccc2)C(=O)N2CCC[C@H]2C(N)=O)NC(=O)[C@H](Cc2ccc(O)cc2)NC(=O)[C@H](C(C)C)NC(=O)[C@H](CC(=O)O)NC(=O)[C@H](Cc2cccc(CNC(=O)CC[C@H](NC(=O)CN3CCN(CC(=O)O)CCN(CC(=O)O)CCN(CC(=O)O)CC3)C(=O)O)c2)NC(=O)[C@H](CCCCN)NC(=O)CNC(=O)[C@H](C(C)(C)C)NC1=O [compound 254, Ac-hLeu-Y-C-Tbg-G-K-MAF(gE-DOTA)-D-V-Y-C-1Nal-F-Pro-CONH2] (Ac-[hLeu]YC[Tle]GK[Phe(3-CH2NH2)]([γGlu-DOTA])DVYC[1Nal]FP-NH2; disulfide 3-11)",1 to 10
